ChEMBL document CHEMBL3769367, “Orexin Receptor Antagonists: New Therapeutic Agents for the Treatment of Insomnia” (J Med Chem, 2016)

Legend:
[1] = molecular target: T1, Orexin receptor type 2 (Homo sapiens) (UniProt O43614)
T1 sequence (whole entry): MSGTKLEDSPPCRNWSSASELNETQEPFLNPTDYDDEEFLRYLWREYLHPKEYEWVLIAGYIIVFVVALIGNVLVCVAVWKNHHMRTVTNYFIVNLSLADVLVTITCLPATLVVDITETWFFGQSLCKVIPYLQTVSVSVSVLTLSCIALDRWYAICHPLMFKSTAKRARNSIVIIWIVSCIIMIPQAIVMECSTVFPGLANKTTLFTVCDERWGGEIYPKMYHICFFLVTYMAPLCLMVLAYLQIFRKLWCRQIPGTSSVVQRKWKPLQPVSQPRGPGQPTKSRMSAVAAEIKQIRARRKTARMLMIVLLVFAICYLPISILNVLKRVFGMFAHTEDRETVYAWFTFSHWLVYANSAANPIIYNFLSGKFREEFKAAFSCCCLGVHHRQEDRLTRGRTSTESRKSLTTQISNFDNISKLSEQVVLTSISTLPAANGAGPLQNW
Description: Antagonist activity at OX2R (unknown origin)

Homo sapiens = organism: Homo sapiens; assay: Selectivity ratio of IC50 for OX2R (unknown origin) to IC50 for OX1R (unknown origin)
[2] = molecular target: T2, Orexin/Hypocretin receptor type 1 (Homo sapiens, UniProt O43613); assay: Binding affinity to OX1R (unknown origin)
T2 sequence (O43613 whole entry): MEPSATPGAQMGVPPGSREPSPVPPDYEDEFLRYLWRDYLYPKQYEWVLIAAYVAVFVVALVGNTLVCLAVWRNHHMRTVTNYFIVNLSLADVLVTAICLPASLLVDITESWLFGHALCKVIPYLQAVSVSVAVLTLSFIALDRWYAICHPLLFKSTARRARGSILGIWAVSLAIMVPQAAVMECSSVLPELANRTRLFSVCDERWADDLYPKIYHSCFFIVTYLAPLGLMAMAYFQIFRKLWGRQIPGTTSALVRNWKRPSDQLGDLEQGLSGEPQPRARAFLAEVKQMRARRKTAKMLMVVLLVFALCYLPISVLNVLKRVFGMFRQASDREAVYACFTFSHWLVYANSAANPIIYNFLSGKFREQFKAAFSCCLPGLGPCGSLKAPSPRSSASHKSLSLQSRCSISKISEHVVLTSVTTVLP

Orexin receptor type 2 = molecular target: T3, Orexin receptor type 2 (Homo sapiens, UniProt O43614); assay: Binding affinity to OX2R (unknown origin)
T3 sequence (O43614 whole entry): T1 sequence (whole entry)

pKb [1]	Ratio IC50 (Homo sapiens)	Ki [2] [nM]	Ki (Orexin receptor type 2) [nM]	Structure (SMILES)
8.3				CC1(C)OC[C@H](NC(=O)Nc2ccc(Br)cc2Br)[C@H](c2ccccc2)O1
	68			COc1ccc(CC2c3cc(OC)c(OC)cc3CCN2CC(=O)NCc2ccccc2)cc1OC (stereo unspecified)
		34	22	Cc1ccc(-n2nccn2)c(C(=O)N2C[C@@H](COc3ccc(F)c(C)c3)CC[C@H]2C)c1 (racemic)
		0.3	0.1	Cc1ccc(-n2nccn2)c(C(=O)N2C[C@H](COc3ccc(F)c(C)c3)CC[C@H]2C)c1 (racemic)
